Source: US8071625B2, “Certain chemical entities, compositions, and methods” (Cytokinetics, Inc., priority 2006, dated 2011)

target: T1, crosslinked smooth muscle actomyosin (chicken gizzard smooth muscle myosin subfragment-1 crosslinked to cardiac or skeletal actin) (Gallus gallus, UniProt P10587); test: Lead optimization pyruvate kinase/horseradish peroxidase/pyruvate oxidase-coupled ATPase assay (compound dose response); assay type: biochemical; conditions: read-out: IC50 Arithmetic Mean
T1 construct: chicken gizzard smooth muscle myosin subfragment-1; from tissue; host or cells: chicken gizzard
Outline: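 IC50 is the midpoint of a 4-parameter dose–response fit of Amplex Red fluorescence (480/615 nm). Buffer was 12 mM potassium PIPES pH 7.00 at 22 °C with 100 mM KCl, 2 mM MgCl2, 0.15 mM ATP and 2 mM phosphate, with PK/pyruvate oxidase/HRP coupling. Enzyme: smooth muscle myosin S1 crosslinked to cardiac or skeletal actin, dosed empirically by activity.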

IC50 [µM] | SMILES
2.78 | O=C(Nc1ccc(Cl)cc1)OCC1(C(=O)NCc2ccccc2Cl)CCOCC1 [(4-{[N-(4-chlorophenyl)carbamoyloxy]methyl}(2H-3,4,5,6-tetrahydropyran-4-yl))-N-[(2-chlorophenyl)methyl]carboxamide]
3.92 | Cc1nc(-c2ccc(NC(=O)OCC3(C(=O)NCc4ccccc4Cl)CCOCC3)cc2)cs1 [N-[(2-chlorophenyl)methyl][4-({N-[4-(2-methyl(1,3-thiazol-4-yl))phenyl]carbamoyloxy}methyl)(2H-3,4,5,6-tetrahydropyran-4-yl)]carboxamide]
4.73 | CCc1ccc(NC(=O)NCCC(C)(C)C(=O)NCc2ccccc2Cl)cc1 [N-[(2-chlorophenyl)methyl]-4-{[N-(4-ethylphenyl)carbamoyl]amino}-2,2-dimethylbutanamide]
0.742 | Cc1ccc(NC(=O)OCC2(C(=O)NCc3ccccc3Cl)CCN(C(=O)CN)CC2)cc1F [(1-(2-aminoacetyl)-4-{[N-(3-fluoro-4-methylphenyl)carbamoyloxy]methyl}(4-piperidyl))-N-[(2-chlorophenyl)methyl]carboxamide]
1.78 | CCc1ccc(NC(=O)OCC2(C(=O)NCc3ccccc3Cl)CCN(C(=O)C(C)NC)CC2)cc1 (stereo not drawn) [N-[(2-chlorophenyl)methyl](4-{[N-(4-ethylphenyl)carbamoyloxy]methyl}-1-[2-(methylamino)propanoyl](4-piperidyl))carboxamide]
2.21 | Cc1ccc(NC(=O)OCC2(C(=O)NCc3ccccc3Cl)CCOCC2)cc1F [N-[(2-chlorophenyl)methyl](4-{[N-(3-fluoro-4-methylphenyl)carbamoyloxy]methyl}(2H-3,4,5,6-tetrahydropyran-4-yl))carboxamide]
4.09 | CCc1ccc(NC(=O)OCC(C)(NC(=O)OC)C(=O)NCc2ccccc2Cl)cc1 (stereo not drawn) [N-[(2-chlorophenyl)methyl]-3-[N-(4-ethylphenyl)carbamoyloxy]-2-(methoxycarbonylamino)-2-methylpropanamide]
18.7 | CCc1ccc(NC(=O)N(C)CC2(C(=O)NCc3ccccc3Cl)CCN(C(=O)CO)CC2)cc1 [N-[(2-chlorophenyl)methyl][4-({[(4-ethylphenyl)amino]-N-methylcarbonylamino}methyl)-1-(2-hydroxyacetyl)(4-piperidyl)]carboxamide]
1.21 | CCc1ccc(NC(=O)OCCN(C)C(=O)CCc2ccccc2C(F)(F)F)cc1 [N-{2-[N-(4-ethylphenyl)carbamoyloxy]ethyl}-N-methyl-3-[2-(trifluoromethyl)phenyl]propanamide]
9.44 | CCc1ccc(NC(=O)OCC2(C(=O)NCc3cccnc3C)CCN(C(=O)CN)CC2)cc1 [[(1-(2-aminoacetyl)-4-{N-[(2-methyl(3-pyridyl))methyl]carbamoyl}(4-piperidyl))methoxy]-N-(4-ethylphenyl)carboxamide]
0.187 | CCc1ccc(NC(=O)OCC2(C(=O)NCc3ccccc3Cl)CCN(C(=O)C(O)CCN)CC2)cc1 (stereo not drawn) [(1-(4-amino-2-hydroxybutanoyl)-4-{[N-(4-ethylphenyl)carbamoyloxy]methyl}(4-piperidyl))-N-[(2-chlorophenyl)methyl]carboxamide]
0.173 | CCc1ccc(NC(=O)OCC2(C(=O)NCc3ccccc3Cl)CCN(C(=O)CO)CC2)cc1 [N-[(2-chlorophenyl)methyl](4-{[N-(4-ethylphenyl)carbamoyloxy]methyl}-1-(2-hydroxyacetyl)(4-piperidyl))carboxamide]
18 | CCc1ccc(NC(=O)OCC2(C(=O)OC)CCN(C(=O)CN)CC2)cc1 [methyl 1-(2-aminoacetyl)-4-{[N-(4-ethylphenyl)carbamoyloxy]methyl}piperidine-4-carboxylate]
0.099 | CCc1ccc(NC(=O)OCC2(C(=O)NCc3cccc(Cl)c3F)CCN(C(=O)CN)CC2)cc1 [[(1-(2-aminoacetyl)-4-{N-[(3-chloro-2-fluorophenyl)methyl]carbamoyl}(4-piperidyl))methoxy]-N-(4-ethylphenyl)carboxamide]
0.67 | CCc1ccc(NC(=O)OCC2(C(=O)NCc3ccccc3Cl)CCN(C(=O)C(C)(C)N)CC2)cc1 [(1-(2-amino-2-methylpropanoyl)-4-{[N-(4-ethylphenyl)carbamoyloxy]methyl}(4-piperidyl))-N-[(2-chlorophenyl)methyl]carboxamide]
16.3 | CCc1ccc(NC(=O)OCCN(CCNC)C(=O)NCc2ccccc2Cl)cc1 [{[(2-chlorophenyl)methyl]amino}-N-{2-[N-(4-ethylphenyl)carbamoyloxy]ethyl}-N-[2-(methylamino)ethyl]carboxamide]
0.126 | NCC(=O)N1CCC(COC(=O)Nc2ccc3c(c2)CCC3)(C(=O)NCc2ccccc2Cl)CC1 [{1-(2-aminoacetyl)-4-[(N-indan-5-ylcarbamoyloxy)methyl](4-piperidyl)}-N-[(2-chlorophenyl)methyl]carboxamide]
0.283 | CCc1ccc(NC(=O)OCC(C)(CCNC(=O)CN)C(=O)NCc2ccccc2Cl)cc1 (stereo not drawn) [4-(2-aminoacetylamino)-N-[(2-chlorophenyl)methyl]-2-{[N-(4-ethylphenyl)carbamoyloxy]methyl}-2-methylbutanamide]
0.569 | NCC(=O)N1CCC(COC(=O)Nc2ccc(Cl)cc2)(C(=O)NCc2ccccc2Cl)CC1 [(1-(2-aminoacetyl)-4-{[N-(4-chlorophenyl)carbamoyloxy]methyl}(4-piperidyl))-N-[(2-chlorophenyl)methyl]carboxamide]
0.246 | CCc1ccc(NC(=O)OCC2(C(=O)NCc3ccccc3Cl)CCN(C(=O)CCCN)CC2)cc1 [(1-(4-aminobutanoyl)-4-{[N-(4-ethylphenyl)carbamoyloxy]methyl}(4-piperidyl))-N-[(2-chlorophenyl)methyl]carboxamide]
4.04 | CCc1ccc(NC(=O)OCC2(C(=O)NCc3ccccc3Cl)CCN(CCO)CC2)cc1 [N-[(2-chlorophenyl)methyl](4-{[N-(4-ethylphenyl)carbamoyloxy]methyl}-1-(2-hydroxyethyl)(4-piperidyl))carboxamide]
0.188 | CCc1ccc(NC(=O)OCCN(CCCNC(=O)CN)C(=O)NCc2ccccc2Cl)cc1 [2-amino-N-[3-({[(2-chlorophenyl)methyl]amino}-N-{2-[N-(4-ethylphenyl)carbamoyloxy]ethyl}carbonylamino)propyl]acetamide]
1.28 | CCc1ccc(NC(=O)OCC2(C(=O)NCc3ccc(Cl)cc3)CCN(C(=O)CN)CC2)cc1 [[(1-(2-aminoacetyl)-4-{N-[(4-chlorophenyl)methyl]carbamoyl}(4-piperidyl))methoxy]-N-(4-ethylphenyl)carboxamide]
17 | N#Cc1ccccc1NC(=O)OCC1(C(=O)NCc2ccccc2Cl)CCOCC1 [N-[(2-chlorophenyl)methyl](4-{[N-(2-cyanophenyl)carbamoyloxy]methyl}(2H-3,4,5,6-tetrahydropyran-4-yl))carboxamide]
0.399 | CCc1ccc(NC(=O)OCC2(C(=O)NCc3ccccc3Cl)CCCN(C(=O)CO)C2)cc1 (stereo not drawn) [N-[(2-chlorophenyl)methyl](3-{[N-(4-ethylphenyl)carbamoyloxy]methyl}-1-(2-hydroxyacetyl)(3-piperidyl))carboxamide]
0.426 | CCc1ccc(NC(=O)OCC2(C(=O)NCc3ccccc3Cl)CCN(C(=O)CCC(=O)OC)CC2)cc1 [methyl 4-(4-{N-[(2-chlorophenyl)methyl]carbamoyl}-4-{[N-(4-ethylphenyl)carbamoyloxy]methyl}piperidyl)-4-oxobutanoate]
0.355 | CCc1ccc(NC(=O)OCCN(CCCCO)C(=O)NCc2ccccc2Cl)cc1 [{[(2-chlorophenyl)methyl]amino}-N-{2-[N-(4-ethylphenyl)carbamoyloxy]ethyl}-N-(4-hydroxybutyl) carboxamide]

SMILES | IC50 [µM]
CCc1ccc(NC(=O)OCC2(C(=O)NCc3ccccc3Cl)CCN(C(=O)CNC(=O)OC(C)(C)C)CC2)cc1 [(tert-butoxy)-N-[2-(4-{N-[(2-chlorophenyl)methyl]carbamoyl}-4-{[N-(4-ethylphenyl)carbamoyloxy]methyl}piperidyl)-2-oxoethyl]carboxamide] | 0.919
CCc1ccc(NC(=O)OCC2(C(=O)NCc3ccccc3Cl)CCN(C(=O)[C@@H](CO)NC(=O)OC(C)(C)C)CC2)cc1 [N-[(1R)-2-(4-{N-[(2-chlorophenyl)methyl]carbamoyl}-4-{[N-(4-ethylphenyl)carbamoyloxy]methyl}piperidyl)-1-(hydroxymethyl)-2-oxoethyl](tert-butoxy)carboxamide] | 3.5
CCc1ccc(NC(=O)OCCN(CCCNC(=O)CNC(=O)OC(C)(C)C)C(=O)NCc2ccccc2Cl)cc1 [2-[(tert-butoxy)carbonylamino]-N-[3-({[(2-chlorophenyl)methyl]amino}-N-{2-[N-(4-ethylphenyl)carbamoyloxy]ethyl}carbonylamino)propyl]acetamide] | 4.09
CCc1ccc(NC(=O)OCC2(C(=O)NCc3ccccc3Cl)CCCN(C(=O)[C@H](CO)NC(=O)OC(C)(C)C)C2)cc1 (stereo partly drawn) [N-[(1S)-2-(3-{N-[(2-chlorophenyl)methyl]carbamoyl}-3-{[N-(4-ethylphenyl)carbamoyloxy]methyl}piperidyl)-1-(hydroxymethyl)-2-oxoethyl](tert-butoxy)carboxamide] | 9.09
CCc1ccc(NC(=O)OCC(C)(CCNC(=O)CNC(=O)OC(C)(C)C)C(=O)NCc2ccccc2Cl)cc1 (stereo not drawn) [4-{2-[(tert-butoxy)carbonylamino]acetylamino}-N-[(2-chlorophenyl)methyl]-2-{[N-(4-ethylphenyl)carbamoyloxy]methyl}-2-methylbutanamide] | 1.3
CCc1ccc(NC(=O)OCC2(C(=O)NCc3ccccc3F)CCN(C(=O)CNC(=O)OC(C)(C)C)CC2)cc1 [(tert-butoxy)-N-[2-(4-{[N-(4-ethylphenyl)carbamoyloxy]methyl}-4-{N-[(2-fluorophenyl)methyl]carbamoyl}piperidyl)-2-oxoethyl]carboxamide] | 3.77
